# Like-named read-outs stand apart in the source and are kept apart here.
# Legend:
# Format in all cases: cell-based
# HCT 116 cells = assay: In vitro cytotoxicity, CellTiter-Glo, 72 h (Example 11)
# Method: Alternatively, the in vitro cytotoxicity of the compounds of the invention may be measured as described in this example. 180 μl of HCT 116 cells (ATCC, Cat # CCL-247) in McCoy's 5a Medium Modified (Sigma-Aldrich®, St. Louis, Mo.)+10% fetal bovine serum were seeded at a density of 5,000 cells/well in a white opaque 96-well plate and incubated for 24 hours at […] in a 5% CO2 incubator. Twenty-four hours post cell seeding, 20 μl of 100× test compounds were diluted such that the final concentrations of the test compounds were in μM concentration. Half log dilutions were used, starting from 10 μM through 0.0001 μM. Puromycin and […]. The cells were incubated with the compounds for 72 hours at […] in a 5% CO2 incubator. After 72 hrs, 100 μl/well of CellTiter-Glo® Luminescent Cell Viability Assay reagent (Promega, Inc., Madison, Wis.; Cat. # G7573) was added to the plates and incubated at room temperature for 30 minutes. The luminescence signals were captured using EnVision 2105 Multimode Plate Reader (PerkinElmer, Waltham, Mass.). The data were analyzed using non-linear regression curve fit (sigmoidal dose response) in GraphPad Prism software (GraphPad Software, La Jolla, Calif.) by plotting the concentration of drug on the X-axis and the mean % inhibition values on the Y-axis.
# PANC 10.05 = assay: In vitro cytotoxicity on pancreatic cancer cell line (Example 12); settings: PANC 10.05 human pancreatic cancer cell line
# PANC 05.04 = assay: as above; settings: PANC 05.04 human pancreatic cancer cell line
# A431 = assay: In vitro cytotoxicity of toxin compounds, CellTiter-Glo, three days (Example 12); settings: Homo sapiens, A-431, 72 h
# Method: (§1) Various cancer cell lines were obtained from the American Type Culture Collection (ATCC®). The cells were cultured in a humidified 5% CO2 incubator in a media consisting of RPMI 1640, L-glutamine, and 10% FBS. The cells were passaged as needed using standard tissue culture techniques. The cells were harvested and plated out into 96-well tissue culture treated plates at a density of 5000 cells per well. After allowing the cells to equilibrate for ˜24 hr in a humidified 5% CO2 incubator, the cells were treated with the test compounds at the indicated concentrations. The cells were exposed to the test compounds for three days with no media change. After the treatment period, CellTiter-Glo® Luminescent Cell Viability Assay reagent solution (Promega, Inc., Madison, Wis.; Cat. # G7573) was introduced to each well. The Cell TiterGlo-containing plates were then read on a SpectroMax® iD3 Multi-Mode Microplate reader (Molecular Devices, LLC, San Jose, Calif.). The degree of luminescence was dictated by the abundance of live cells.
# (§2) The following tables summarize the cytotoxicity (IC50), nM, observed for the specified toxin compounds on the indicated cancer cell lines, NCI-H23, DU145, SW480, SKOV3, A549, HT29, SK-MES-1, SKBR3, HCT116, MCF7, N87, and A431 (ATCC designations).
# A549 = assay: as above; settings: Homo sapiens, 72 h
# Method: as §1, §2
# DU145 = assay: as above; settings: Homo sapiens, DU-145, 72 h
# Method: as §1, §2
# HCT116 = assay: as above; settings: Homo sapiens, HCT-116, 72 h
# Method: as §1, §2
# HT29 = assay: as above; settings: Homo sapiens, HT-29, 72 h
# Method: as §1, §2
# MCF7 = assay: as above; settings: Homo sapiens, 72 h
# Method: as §1, §2
# N87 = assay: as above; settings: 72 h
# Method: as §1, §2
# NCI-H23 = assay: as above; settings: Homo sapiens, 72 h
# Method: as §1, §2
# SK-MES-1 = assay: as above; settings: Homo sapiens, 72 h; SK-MES-1, three days
# Method: as §1, §2
# SKBR3 = assay: as above; settings: Homo sapiens, SK-BR-3, 72 h
# Method: as §1, §2
# SKOV3 = assay: as above; settings: Homo sapiens, SK-OV-3, 72 h
# Method: as §1, §2
# SW480 = assay: as above; settings: Homo sapiens, 72 h
# Method: as §1, §2
# HEL-92.1.7 = assay: In vitro cytotoxicity of toxin compounds (Example 12, Table 4); settings: Homo sapiens
# Method: as §1
# (§3) Table 4 gives the cytotoxicity data for Compounds 2, 4, and 6 on the indicated cancer cell lines, HL60, KG-1, NCI-H69, SK-MEL-1, HEL-92.1.7, and K562 (ATCC designations).
# HL60 = assay: as above; settings: Homo sapiens, HL-60
# Method: as §1, §3
# K562 = assay: as above; settings: Homo sapiens
# Method: as §1, §3
# NCI-H69 = assay: as above; settings: Homo sapiens
# Method: as §1, §3
# SK-MEL-1 = assay: as above; settings: Homo sapiens
# Method: as §1, §3
Structure (SMILES),"IC50 (HCT 116 cells; Homo sapiens, HCT-116, 72 h) [nM]",IC50 (PANC 10.05; Panc1005) [nM],IC50 (PANC 05.04) [nM],IC50 (A431) [nM],IC50 (A549) [nM],IC50 (DU145) [nM],IC50 (HCT116) [nM],IC50 (HT29) [nM],IC50 (MCF7) [nM],IC50 (N87) [nM],IC50 (NCI-H23) [nM],IC50 (SK-MES-1) [nM],IC50 (SKBR3) [nM],IC50 (SKOV3) [nM],IC50 (SW480) [nM],IC50 (HL60) [nM],IC50 (K562) [nM],IC50 (NCI-H69) [nM],IC50 (SK-MEL-1) [nM],other results
"COC(=O)C[C@@H]1C[C@@]2(CO2)[C@H](O)[C@@H](/C=C/C(C)=C/C[C@@H]2O[C@H](C)[C@H](NC(=O)/C=C\C(C)OC(=O)c3ccccc3)C[C@@H]2C)O1 (stereo partly drawn) [Compound 1, (Z)-5-((2R, 3R, 5S, 6S)-6-((2E, 4E)-5-((3R, 4R, 5R, 7S)-4-hydroxy-7-(2-methoxy-2-oxoethyl)-1,6-dioxaspiro[2.5]octan-5-yl)-3-methylpenta-2,4-dienyl)-2,5-dimethyltetrahydro-2H-pyran-3-ylamino)-5-oxopent-3-en-2-yl benzoate]",19,65,22,–,–,–,–,–,–,–,–,–,–,–,–,–,–,–,–,–
"COC(=O)C[C@@H]1C[C@@]2(CO2)[C@H](O)[C@@H](/C=C/C(C)=C/C[C@@H]2O[C@H](C)[C@H](NC(=O)/C=C\C(C)OC(=O)c3ccc(F)cc3)C[C@@H]2C)O1 (stereo partly drawn) [Compound 2, (Z)-5-((2R, 3R, 5S, 6S)-6-((2E, 4E)-5-((3R, 4R, 5R, 7S)-4-hydroxy-7-(2-methoxy-2-oxoethyl)-1,6-dioxaspiro[2.5]octan-5-yl)-3-methylpenta-2,4-dienyl)-2,5-dimethyltetrahydro-2H-pyran-3-ylamino)-5-oxopent-3-en-2-yl 4-fluorobenzoate]",7,21,2,9.1,38.3,27.5,8.9,22.5,32.4,14.9,1.3,113,166,57.2,20.2,0.08,0.58,0.96,3.26,IC50 (HEL-92.1.7): 0.71 nM
"COC(=O)C[C@@H]1C[C@@]2(CO2)[C@H](O)[C@@H](/C=C/C(C)=C/C[C@@H]2O[C@H](C)[C@H](NC(=O)/C=C\C(C)n3nc(C)nc3C)C[C@@H]2C)O1 (stereo partly drawn) [Compound 3, Methyl 2-((3R, 5S, 7R, 8R)-7-((1E, 3E)-5-((2S, 3S, 5R, 6R)-5-((Z)-4-(3,5-dimethyl-1H-1,2,4-triazol-1-yl)pent-2-enamido)-3,6-dimethyltetrahydro-2H-pyran-2-yl)-3-methylpenta-1,3-dienyl)-8-hydroxy-1,6-dioxaspiro[2.5]octan-5-yl)acetate]",390,> 2000,435,–,–,–,–,–,–,–,–,–,–,–,–,–,–,–,–,–
"COC(=O)C[C@@H]1C[C@@]2(CO2)[C@H](O)[C@@H](/C=C/C(C)=C/C[C@@H]2O[C@H](C)[C@H](NC(=O)/C=C\C(C)c3ccon3)C[C@@H]2C)O1 (stereo partly drawn) [Compound 4, Methyl 2-((3R, 5S, 7R, 8R)-8-hydroxy-7-((1E, 3E)-5-((2S,3S,5R,6R)-5-((Z)-4-(isoxazol-3-yl)pent-2-enamido)-3,6-dimethyltetrahydro-2H-pyran-2-yl)-3-methylpenta-1,3-dien-1-yl)-1,6-dioxaspiro[2.5]octan-5-yl)acetate]",330,7.19,4,0.7,2.8,1.9,1,1.3,2.1,1.6,0.2,7.5,9.5,6.7,2.2,0.05,0.11,0.63,0.42,–
"COC(=O)C[C@@H]1C[C@@]2(CO2)[C@H](O)[C@@H](/C=C/C(C)=C/C[C@@H]2O[C@H](C)[C@H](NC(=O)/C=C\C(C)c3cc(OC)no3)C[C@@H]2C)O1 (stereo partly drawn) [Compound 5, Methyl 2-((3R, 5S, 7R, 8R)-8-hydroxy-7-((1E, 3E)-5-((2S, 3S, 5R, 6R)-5-((Z)-4-(3-methoxyisoxazol-5-yl)pent-2-enamido)-3,6-dimethyltetrahydro-2H-pyran-2-yl)-3-methylpenta-1,3-dienyl)-1,6-dioxaspiro[2.5]octan-5-yl)acetate]",–,–,12,–,–,–,–,–,–,–,–,–,–,–,–,–,–,–,–,"IC50 (HCT 116 cells; HCT 116 cells, 72 hours, read-out: IC50): 310 nM; IC50 (PANC 10.05): 19.9 nM"
"COC(=O)C[C@@H]1C[C@@]2(CO2)[C@H](O)[C@@H](/C=C/C(C)=C/C[C@@H]2O[C@H](C)[C@H](NC(=O)/C=C\C(C)c3noc(C)n3)C[C@@H]2C)O1 (stereo partly drawn) [Compound 6, Methyl 2-((3R, 5S, 7R, 8R)-7-((1E, 3E)-5-((2S, 3S, 5R, 6R)-3,6-dimethyl-5-((Z)-4-(5-methyl-1,2,4-oxadiazol-3-yl)pent-2-enamido)tetrahydro-2H-pyran-2-yl)-3-methylpenta-1,3-dienyl)-8-hydroxy-1,6-dioxaspiro[2.5]octan-5-yl)acetate]",20,10.3,7,1.8,4.8,3.3,2,2.7,3.8,1.4,0.4,9.3,12.3,9.7,2.7,0.04,0.09,0.21,0.78,IC50 (HEL-92.1.7): 0.03 nM
"COC(=O)C[C@@H]1C[C@@]2(CO2)[C@H](O)[C@@H](/C=C/C(C)=C/C[C@@H]2O[C@H](C)[C@H](NC(=O)/C=C\C(C)COC3(C)COC3)C[C@@H]2C)O1 (stereo partly drawn) [Compound 7, Methyl 2-((3R, 5S, 7R, 8R)-7-((1E, 3E)-5-((2S, 3S, 5R, 6R)-3,6-dimethyl-5-((Z)-4-methyl-5-((3-methyloxetan-3-yl)oxy)pent-2-enamido)tetrahydro-2H-pyran-2-yl)-3-methylpenta-1,3-dien-1-yl)-8-hydroxy-1,6-dioxaspiro[2.5]octan-5-yl)acetate]",300,98.4,22,–,–,–,–,–,–,–,–,–,–,–,–,–,–,–,–,–
"COc1ccc(C[C@H](N)C(=O)N[C@H]2[C@@H](O)[C@H](n3cnc4c(N(C)C)ncnc43)O[C@@H]2CO)cc1 [Puromycin, reference compound]",–,–,–,–,–,–,–,–,–,–,–,–,–,–,–,–,–,–,–,"IC50 (HCT 116 cells; Homo sapiens, HCT 116 cells, 72 hours, read-out: IC50): ~250 nM"
